Measured values: ChEMBL document CHEMBL1125924, “Thienotriazolodiazepines as platelet-activating factor antagonists. Steric limitations for the substituent in position 2” (J Med Chem, 1991)
The source made the active and inactive calls. The calls are words filed in the database; no cut-off is given here.

What was measured:
Cavia porcellus [1] = assay: In vivo inhibitory dose against PAF-induced bronchoconstriction in guinea pig upon peroral administration after […] pretreatment time; type: functional; settings: po, read-out: ID50 (the source's name)
Cavia porcellus [2] = assay: In vivo inhibitory dose against PAF-induced bronchoconstriction in guinea pig upon intravenous administration after one-minute pre-treatment time.; type: functional; settings: read-out: ID50 (the source's name)
Cavia porcellus [3] = assay: In vivo inhibition against PAF-induced bronchoconstriction in guinea pig at 1 mg/kg dose upon peroral administration after […] pre-treatment time.; type: functional; settings: route oral
Cavia porcellus [4] = assay: In vivo inhibitory dose against PAF-induced bronchoconstriction in guinea pig upon intravenous administration after one-minute pretreatment time; IA=Inactive; type: functional, organism-based
[5] = In vitro for platelet activating factor receptor antagonist activity in a binding assay using washed whole dog platelets.

Row | SMILES | ED50 (Cavia porcellus [1]) | ED50 (Cavia porcellus [2]) | inhibition in vivo at 1 mg/kg (Cavia porcellus [3]) | ID50 (Cavia porcellus [4]) | IC50 [5]
1 | CCCCc1ccc(CCc2cc3c(s2)-n2c(C)nnc2CN=C3c2ccccc2Cl)cc1 | 0.2 mg/kg | 0.003 mg/kg | 98% | – | –
2 | C#Cc1cc2c(s1)-n1c(C)nnc1CN=C2c1ccccc1Cl | – | 0.02 mg/kg | 9% | – | –
3 | Cc1cc(C#Cc2cc3c(s2)-n2c(C)nnc2CN=C3c2ccccc2Cl)cc2c1OC(C)(C)C2 | – | – | – | inactive | –
4 | Cc1nnc2n1-c1sc(C#Cc3ccc(-c4ccccn4)s3)cc1C(c1ccccc1Cl)=NC2 | 0.08 mg/kg | 0.003 mg/kg | 93% | – | –
5 | Cc1nnc2n1-c1sc(C#Cc3ccc(C4CCCCC4)cc3)cc1C(c1ccccc1Cl)=NC2 | – | 0.3 mg/kg | 22% | – | –
6 | Cc1nnc2n1-c1sc(/C=C\c3ccccn3)cc1C(c1ccccc1Cl)=NC2 | – | 0.05 mg/kg | 20% | – | –
7 | Cc1nnc2n1-c1sc(/C=C\c3ccc(C4CCCCC4)cc3)cc1C(c1ccccc1Cl)=NC2 | 0.4 mg/kg | 0.03 mg/kg | 85% | – | –
8 | Cc1nnc2n1-c1sc(C#Cc3ccc4c(c3)CCC4)cc1C(c1ccccc1Cl)=NC2 | – | 0.2 mg/kg | 20% | – | –
9 | Cc1nnc2n1-c1sc(CCc3ccc(-c4ccccn4)s3)cc1C(c1ccccc1Cl)=NC2 | 0.4 mg/kg | 0.003 mg/kg | 89% | – | –
10 | Cc1nnc2n1-c1sc(/C(CC(=O)N3CCOCC3)=N\N)cc1C(c1ccccc1Cl)=NC2 | – | 0.5 mg/kg | 12% | – | –
11 | Cc1nnc2n1-c1sc(C#CCO)cc1C(c1ccccc1Cl)=NC2 | – | 0.02 mg/kg | 20% | – | –
12 | Cc1nnc2n1-c1sc(C#Cc3ccc(CC(C)C)cc3)cc1C(c1ccccc1Cl)=NC2 | – | 0.3 mg/kg | 2% | – | –
13 | Cc1cc(CCc2cc3c(s2)-n2c(C)nnc2CN=C3c2ccccc2Cl)cc2c1OC(C)(C)C2 | 0.3 mg/kg | 0.01 mg/kg | 96% | – | –
14 | Cc1nnc2n1-c1sc(C#Cc3ccccn3)cc1C(c1ccccc1Cl)=NC2 | – | 0.06 mg/kg | 5% | – | –
15 | Cc1nnc2n1-c1sc(C#Cc3ccccc3)cc1C(c1ccccc1Cl)=NC2 | – | 3 mg/kg | 6% | – | –
16 | Cc1nnc2n1-c1sc(I)cc1C(c1ccccc1Cl)=NC2 | – | 0.2 mg/kg | 4% | – | 370 nM
17 | Cc1nnc2n1-c1sc(C#CC(=O)N3CCOCC3)cc1C(c1ccccc1Cl)=NC2 | – | 0.5 mg/kg | 16% | – | –
18 | Cc1nnc2n1-c1sc(CCC(=O)N3CCOCC3)cc1C(c1ccccc1Cl)=NC2 [APAFANT] | 1.2 mg/kg | 0.03 mg/kg | 42% | – | –

Row | SMILES | ED50 (Cavia porcellus [1]) | ED50 (Cavia porcellus [2]) | inhibition in vivo at 1 mg/kg (Cavia porcellus [3]) | ID50 (Cavia porcellus [4]) | IC50 [5]
19 | Cc1nnc2n1-c1sc(-c3cc(O)[nH]n3)cc1C(c1ccccc1Cl)=NC2 | – | – | – | inactive | –
20 | CCCCc1ccc(/C=C\c2cc3c(s2)-n2c(C)nnc2CN=C3c2ccccc2Cl)cc1 | 0.35 mg/kg | 0.0004 mg/kg | 93% | – | –
21 | Cc1nnc2n1-c1sc(CCc3ccc(CC(C)C)cc3)cc1C(c1ccccc1Cl)=NC2 | 0.03 mg/kg | 0.002 mg/kg | 99% | – | –
22 | Cc1nnc2n1-c1sc(-c3[nH]nnc3C(=O)N3CCOCC3)cc1C(c1ccccc1Cl)=NC2 | – | – | – | inactive | –
23 | Cc1nnc2n1-c1sc(CCc3ccc(-n4ccnc4)cc3)cc1C(c1ccccc1Cl)=NC2 | 0.4 mg/kg | 0.003 mg/kg | 95% | – | –
24 | Cc1nnc2n1-c1sc(CCc3ccc(C4CCCCC4)cc3)cc1C(c1ccccc1Cl)=NC2 | 0.4 mg/kg | 0.005 mg/kg | 68% | – | –
25 | Cc1nnc2n1-c1sc(/C=C\c3ccc(CC(C)C)cc3)cc1C(c1ccccc1Cl)=NC2 | 0.03 mg/kg | 0.004 mg/kg | 99% | – | –
26 | Cc1nnc2n1-c1sc(/C=C/C(=O)N3CCOCC3)cc1C(c1ccccc1Cl)=NC2 | – | 0.4 mg/kg | 27% | – | –
27 | Cc1nnc2n1-c1sc(/C=C\C(=O)N3CCOCC3)cc1C(c1ccccc1Cl)=NC2 | – | 0.06 mg/kg | 20% | – | –
28 | Cc1nnc2n1-c1sc(CCc3ccc4c(c3)CCO4)cc1C(c1ccccc1Cl)=NC2 | – | 0.003 mg/kg | 44% | – | –
29 | Cc1nnc2n1-c1sc(/C=C\c3ccc4c(c3)CCC4)cc1C(c1ccccc1Cl)=NC2 | 0.7 mg/kg | 0.03 mg/kg | 58% | – | –
30 | CCCCc1ccc(C#Cc2cc3c(s2)-n2c(C)nnc2CN=C3c2ccccc2Cl)cc1 | – | 0.2 mg/kg | 6% | – | –
31 | Cc1nnc2n1-c1sc(CCc3ccc4c(c3)CCC4)cc1C(c1ccccc1Cl)=NC2 | 0.03 mg/kg | 0.04 mg/kg | 99% | – | –
32 | Cc1nnc2n1-c1sc(C#Cc3ccc4c(c3)CCO4)cc1C(c1ccccc1Cl)=NC2 | – | 0.2 mg/kg | 7% | – | –
33 | Cc1nnc2n1-c1sc(C#C[Si](C)(C)C)cc1C(c1ccccc1Cl)=NC2 | – | 0.3 mg/kg | 28% | – | –
34 | Cc1nnc2n1-c1sc(Br)cc1C(c1ccccc1Cl)=NC2 [BROTIZOLAM] | – | 0.5 mg/kg | 11% | – | –
35 | Cc1nnc2n1-c1sc(C#Cc3cccc4ccccc34)cc1C(c1ccccc1Cl)=NC2 | – | 0.03 mg/kg | 14% | – | –
